Experiments:
[1] = Relative binding to Phosphodiesterase 3 and Phosphodiesterase 7, ratio of IC50
[2] = Relative binding to Phosphodiesterase 1 and Phosphodiesterase 7, ratio of IC50
[3] = Relative binding to Phosphodiesterase 4 and Phosphodiesterase 7, ratio of IC50
[4] = Inhibition of Phosphodiesterase 7
[5] = Relative binding to Phosphodiesterase 5 and Phosphodiesterase 7, ratio of IC50
[6] = Relative binding to Phosphodiesterase 2 and Phosphodiesterase 7, ratio of IC50
[7] = Inhibition of Phosphodiesterase 5
Phosphodiesterase 3 = Phosphodiesterase 3 (Homo sapiens, UniProt Q14432+Q13370); experiment: Inhibition of Phosphodiesterase 3; type: protein assay
[8] = Inhibition of Phosphodiesterase 1
[9] = target: cGMP-dependent 3',5'-cyclic phosphodiesterase (Homo sapiens, UniProt O00408); experiment: Inhibition of Phosphodiesterase 2
[10] = Inhibition of Phosphodiesterase 4

Sequence of cGMP-dependent 3',5'-cyclic phosphodiesterase (O00408 whole entry): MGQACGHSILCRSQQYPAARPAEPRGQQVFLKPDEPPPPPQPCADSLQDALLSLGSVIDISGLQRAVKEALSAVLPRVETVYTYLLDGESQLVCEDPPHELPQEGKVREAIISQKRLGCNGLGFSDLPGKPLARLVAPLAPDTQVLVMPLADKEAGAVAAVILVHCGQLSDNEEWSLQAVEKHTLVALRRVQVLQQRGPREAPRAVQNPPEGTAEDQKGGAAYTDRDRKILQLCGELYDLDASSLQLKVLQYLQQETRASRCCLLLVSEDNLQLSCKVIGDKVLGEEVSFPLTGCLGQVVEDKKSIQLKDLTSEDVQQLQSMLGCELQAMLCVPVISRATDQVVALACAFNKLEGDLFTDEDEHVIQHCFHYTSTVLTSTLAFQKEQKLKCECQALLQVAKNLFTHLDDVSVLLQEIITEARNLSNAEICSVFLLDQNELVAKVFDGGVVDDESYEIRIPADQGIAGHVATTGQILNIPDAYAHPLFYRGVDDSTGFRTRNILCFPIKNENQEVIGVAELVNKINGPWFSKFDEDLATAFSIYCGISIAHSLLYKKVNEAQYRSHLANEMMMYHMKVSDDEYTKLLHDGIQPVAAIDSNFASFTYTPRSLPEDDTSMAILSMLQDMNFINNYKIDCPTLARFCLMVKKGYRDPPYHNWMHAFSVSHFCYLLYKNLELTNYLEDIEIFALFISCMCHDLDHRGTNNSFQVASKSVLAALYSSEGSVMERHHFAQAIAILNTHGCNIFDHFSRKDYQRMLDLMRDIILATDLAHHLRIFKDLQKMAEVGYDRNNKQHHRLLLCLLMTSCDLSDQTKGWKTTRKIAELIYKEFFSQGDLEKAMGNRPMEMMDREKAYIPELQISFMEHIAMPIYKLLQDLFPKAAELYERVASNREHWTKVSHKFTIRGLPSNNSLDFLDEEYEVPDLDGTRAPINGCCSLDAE

`CCOC(=O)c1sc(Nc2nc(N3CCNCC3)c3c(n2)N(Cc2cc(OC)c(OC)c(OC)c2)CCO3)nc1C` gave a Ratio [1] of 3850, a Ratio [2] of 1170 and a Ratio [3] of 1200. For the same compound, the IC50 [4] was 5 nM and the Ratio [5] was 1240.
Compound `CCOC(=O)c1sc(Nc2nc(N3CCNCC3)c3c(n2)N(Cc2cc(OC)c(OC)c(OC)c2)CCC3)nc1C` has a Ratio [1] of 734, a Ratio [2] of 166 and a Ratio [3] of 105. For the same compound, the IC50 [4] was 30 nM, the Ratio [5] was 182 and the Ratio [6] was 114.
`CCOC(=O)c1sc(Nc2nc(N3CCNCC3)c3c(n2)N(Cc2ccc(S(C)(=O)=O)cc2)CCC3)nc1C` gave a Ratio [1] of 392, a Ratio [2] of 157 and a Ratio [3] of 54. The IC50 [4] was 60 nM, the Ratio [5] was 8 and the Ratio [6] was 27.
For `CCOC(=O)c1sc(Nc2nc(NCc3ccc(OC)c(OC)c3)c3c(ncn3CC)n2)nc1C`, the Ratio [1] was 3.8, the Ratio [2] was 1.5 and the Ratio [3] was 7.3. It also gave an IC50 [7] of 270 nM, an IC50 [4] of 150 nM and an IC50 (Phosphodiesterase 3) of 580 nM. The IC50 [8] was 220 nM, the Ratio [5] was 1.8 and the Ratio [6] was 11. The IC50 [9] was 1700 nM.
Work on `CCOC(=O)c1sc(Nc2nc(NCc3ccc(S(N)(=O)=O)cc3)c3c(ncn3CC)n2)nc1C` yielded an IC50 [10] of 550 nM, an IC50 [7] of 11 nM and an IC50 [4] of 11 nM. The IC50 (Phosphodiesterase 3) was 2970 nM, the IC50 [8] was 950 nM and the IC50 [9] was 950 nM.
In the case of `CCOC(=O)c1sc(Nc2nc(N3CCN(C)CC3)c3c(n2)N(Cc2cc(OC)c(OC)c(OC)c2)CCC3)nc1C`, the Ratio [1] is reported as 174, the Ratio [2] is reported as 39 and the Ratio [3] is reported as 27. It also gave an IC50 [4] of 150 nM and a Ratio [5] of 9.
In the case of `CCOC(=O)c1sc(Nc2nc(N3CCNCC3)c3c(n2)N(Cc2ccc(S(C)(=O)=O)cc2)CC3)nc1C`, the Ratio [1] is reported as 1030, the Ratio [2] is reported as 352 and the Ratio [3] is reported as 94. It also gave an IC50 [4] of 20 nM and a Ratio [5] of 1.
`CCOC(=O)c1sc(Nc2nc(N3CCN(C)CC3)c3c(n2)N(Cc2cc(OC)c(OC)c(OC)c2)CC3)nc1C` showed a Ratio [1] of 315, a Ratio [2] of 156 and a Ratio [3] of 189. The IC50 [4] was 20 nM and the Ratio [5] was 104.
`CCOC(=O)c1sc(Nc2nc(N3CCN(O)CC3)c3c(n2)N(Cc2ccccn2)CC3)nc1C` gave a Ratio [1] of 154, a Ratio [2] of 35 and a Ratio [3] of 13. For the same compound, the IC50 [4] was 150 nM and the Ratio [5] was 7.
In the case of `CCOC(=O)c1sc(Nc2nc(NC)c3c(n2)N(Cc2ccc(S(C)(=O)=O)cc2)CC3)nc1C`, the Ratio [3] is reported as 6 and the IC50 [4] is reported as 340 nM.
For `CCOC(=O)c1sc(Nc2nc(N3CCNCC3)c3c(n2)N(Cc2cccnc2)CCC3)nc1C`, the Ratio [1] was 390, the Ratio [2] was 162 and the Ratio [3] was 35. The IC50 [4] was 100 nM, the Ratio [5] was 13 and the Ratio [6] was 33.
Work on `CCOC(=O)c1sc(Nc2nc(N3CCNCC3)c3c(n2)N(Cc2cc(OC)c(OC)c(OC)c2)CC3)nc1C` yielded a Ratio [1] of 1880, a Ratio [2] of 576 and a Ratio [3] of 795. The IC50 [4] was 6 nM and the Ratio [5] was 362.
For `CCCc1nn(C)c2c(=O)[nH]c(-c3cc(S(=O)(=O)N4CCN(C)CC4)ccc3OCC)nc12`, the IC50 [10] was 4600 nM, the IC50 [7] was 11 nM and the IC50 [4] was > 10000 nM. For the same compound, the IC50 [8] was > 10000 nM.
`CCOC(=O)c1sc(Nc2nc(N3CCN(C)CC3)c3c(n2)N(Cc2cc(OC)c(OC)c(OC)c2)CCO3)nc1C` showed a Ratio [1] of 206, a Ratio [2] of 64 and a Ratio [3] of 67. It also gave an IC50 [4] of 70 nM and a Ratio [5] of 64.
In the case of `CCOC(=O)c1sc(Nc2nc(NC)c3ncn(Cc4ccc(S(C)(=O)=O)cc4)c3n2)nc1C`, the Ratio [1] is reported as 259, the Ratio [2] is reported as 556 and the IC50 [10] is reported as 270 nM. It also gave a Ratio [3] of 3, an IC50 [7] of 720 nM and an IC50 [4] of 90 nM. For the same compound, the IC50 (Phosphodiesterase 3) was 23300 nM, the IC50 [8] was 50000 nM and the Ratio [5] was 8.
In the case of `COc1ccc(C2CNC(=O)C2)cc1OC1CCCC1` (stereo not given) [ROLIPRAM], the IC50 [10] is reported as 740 nM, the IC50 [7] is reported as > 10000 nM and the IC50 [4] is reported as > 10000 nM. The IC50 (Phosphodiesterase 3) was > 10000 nM, the IC50 [8] was > 10000 nM and the IC50 [9] was > 10000 nM.

Reference: ChEMBL document CHEMBL1143499, “Fused pyrimidine based inhibitors of phosphodiesterase 7 (PDE7): synthesis and initial structure-activity relationships” (Bioorg Med Chem Lett, 2005)
